Where a SMILES comes first, the peptide text is derived from it. Bridges are numbered along the chain shown (N, C = ends).
What was measured:
OXTR (OT receptor) [1] = molecular target: T1, OXTR (OT receptor) (Homo sapiens, UniProt P30559); assay: HTRF-IP1 accumulation assay, antagonist assessment; format: cell-based; parameters: expressed in transfected cells; host or cells: HEK293
T1 sequence (P30559 1-389): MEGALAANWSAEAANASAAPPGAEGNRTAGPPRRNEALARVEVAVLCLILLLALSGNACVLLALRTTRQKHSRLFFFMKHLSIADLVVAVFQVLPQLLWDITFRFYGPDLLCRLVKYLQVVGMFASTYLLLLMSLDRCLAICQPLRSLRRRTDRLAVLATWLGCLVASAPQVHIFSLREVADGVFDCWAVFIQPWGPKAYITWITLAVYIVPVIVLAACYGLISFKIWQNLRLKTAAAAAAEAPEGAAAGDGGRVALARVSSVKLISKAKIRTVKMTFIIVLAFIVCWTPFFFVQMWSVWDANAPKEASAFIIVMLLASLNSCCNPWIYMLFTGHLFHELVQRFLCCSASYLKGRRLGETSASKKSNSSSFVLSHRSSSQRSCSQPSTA

V1aR (V1a receptor) [2] = molecular target: T2, V1aR (V1a receptor) (Homo sapiens, UniProt P37288); assay: HTRF-IP1 accumulation assay, agonist assessment; format: cell-based; settings: for EC50: V1a receptor-expressing HEK293 cells, IP1 accumulation, 1 h incubation
T2 construct: expressed in transfected cells; host or cells: HEK293
Method: HTRF-IP1 Accumulation Assay Experimental Procedures
OT or V1a receptor-expressing HEK293 cells were seeded onto clear, poly-L-lysine (100 μg/mL)-coated 384 well plates at a density of 8.75×10^3 cells per well. Levels of receptor activation induced by compounds were assessed at concentrations ranging from 1 nM to 100 μM using the HTRF IP-One kit (CisBio International, Bagnolssur-Cze, France), according to manufacturers protocol. For agonist assessment, cells were incubated with compounds for 1 h prior to the addition of Ab-Cryptate and IP1-d2. The ligand concentration that induced a 50% maximal response (EC50) was used to evaluate functional effects across compounds. […] Cells were then incubated for a further 1 h, and Ab-Cryptate and IP1-d2 added.

V1aR (V1a receptor) [3] = molecular target: T2, V1aR (V1a receptor); assay: HTRF-IP1 accumulation assay, antagonist assessment; format: cell-based; settings: against EC70 concentration of vasopressin
OXTR (OT receptor) [4] = molecular target: T1, OXTR (OT receptor); assay: Competition radioligand binding assay, [3H]-oxytocin displacement; parameters: expressed in transfected cells; host or cells: HEK293; settings: membranes from OT receptor-expressing HEK293 cells, [3H]-oxytocin 10 nM
Method: (§1) Competition Radioligand Binding Assay Experimental Procedures
(§2) Reactions were incubated for 90 min at 4 C to reach equilibrium, and terminated by rapid filtration over glass fibre filters (Whatman GF/A […]), and washing with ice-cold reaction buffer. Radioactivity was detected after soaking filters in Microscint 0 using a Microbeta2 2450 microplate-reader (Perkin Elmer).

OXTR or V1aR receptors = assay: Activity/selectivity at OXTR or V1aR receptors stated in words; settings: OXTR over V1aR
OXTR (OT receptor) [5] = molecular target: T1, OXTR (OT receptor); assay: cell-based; settings: for Emax: read-out: Emax (% OXT)
V1aR (V1a receptor) [6] = molecular target: T2, V1aR (V1a receptor); assay: Competition radioligand binding assay, [3H]-vasopressin displacement; settings: membranes from V1a receptor-expressing HEK293 cells, [3H]-vasopressin 2 nM
Method: as §1, §2

T2 sequence (P37288 whole entry, species assumed): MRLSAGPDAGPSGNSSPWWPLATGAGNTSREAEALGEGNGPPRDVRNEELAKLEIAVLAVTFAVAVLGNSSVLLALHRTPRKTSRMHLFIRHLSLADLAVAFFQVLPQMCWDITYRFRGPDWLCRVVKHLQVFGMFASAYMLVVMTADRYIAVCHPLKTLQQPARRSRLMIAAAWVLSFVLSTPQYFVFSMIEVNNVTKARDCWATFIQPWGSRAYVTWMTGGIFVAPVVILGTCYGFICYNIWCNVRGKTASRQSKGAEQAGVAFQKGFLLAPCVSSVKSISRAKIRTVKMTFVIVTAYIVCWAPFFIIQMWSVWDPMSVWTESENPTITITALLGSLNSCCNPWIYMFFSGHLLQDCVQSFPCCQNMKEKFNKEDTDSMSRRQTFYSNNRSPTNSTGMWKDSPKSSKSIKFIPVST

Q: Which IC50 (OXTR (OT receptor) [1]) does the source give for CC[C@H](C)[C@@H]1NC(=O)[C@H](Cc2ccc(O)cc2)NC(=O)[C@@H](N)CSSC[C@@H](C(=O)N2CCC[C@H]2C(=O)N[C@@H](CC(C)C)C(N)=O)NC(=O)[C@H](CC(N)=O)NC(=O)[C@H](CCC(N)=O)NC1=O [Metabolite A] (H-CYIQNCPL-NH2; disulfide 1-6) here?
A: > 10 µM

Q: What about the EC50 (V1aR (V1a receptor) [2]) of the same compound?
A: > 10 µM

Q: What about the IC50 (V1aR (V1a receptor) [3]) of the same compound?
A: > 10 µM

Q: And the Ki (OXTR (OT receptor) [4])?
A: 138 nM

Q: What about the “selectivity and activity compared with oxytocin” value (OXTR or V1aR receptors) of the same compound?
A: enhanced selectivity and activity

Q: What about the EC50 (OXTR (OT receptor) [5]) of the same compound?
A: 274 nM

Q: What about the Emax (OXTR (OT receptor) [5]) of the same compound?
A: 79.2%

Q: What about the Ki (V1aR (V1a receptor) [6]) of the same compound?
A: 749 nM

Q: CC[C@H](C)[C@@H]1NC(=O)[C@H](Cc2ccc(O)cc2)NC(=O)[C@@H](N)CSSC[C@@H](C(=O)N2CCC[C@H]2C(N)=O)NC(=O)[C@H](CC(N)=O)NC(=O)[C@H](CCC(N)=O)NC1=O [Metabolite B] (H-CYIQNCP-NH2; disulfide 1-6) was tested. Which IC50 (OXTR (OT receptor) [1]) did it give?
A: > 10 µM

Q: And the EC50 (V1aR (V1a receptor) [2])?
A: > 10 µM

Q: And the IC50 (V1aR (V1a receptor) [3])?
A: > 10 µM

Q: What about the Ki (OXTR (OT receptor) [4]) of the same compound?
A: 72.6 nM

Q: And the “selectivity and activity compared with oxytocin” value (OXTR or V1aR receptors)?
A: enhanced selectivity and activity

Q: What about the EC50 (OXTR (OT receptor) [5]) of the same compound?
A: 110 nM

Q: What about the Emax (OXTR (OT receptor) [5]) of the same compound?
A: 74.1%

Q: What about the Ki (V1aR (V1a receptor) [6]) of the same compound?
A: 105 nM

Q: With CC[C@H](C)[C@@H]1NC(=O)[C@H](Cc2ccc(O)cc2)NC(=O)[C@@H](N)CSSC[C@@H](C(=O)N2CCC[C@H]2C(=O)N[C@@H](CC(C)C)C(=O)NCC(N)=O)NC(=O)[C@H](CC(N)=O)NC(=O)[C@H](CCC(N)=O)NC1=O [Oxytocin, reference compound] as the compound, how does the Emax (V1aR (V1a receptor) [2]; V1aR, relative to vasopressin) read?
A: 82%

— patent US11414459B2 (Kinoxis Therapeutics Pty Ltd, priority 2017, dated 2022)
